Measurements: US8841257B2, “Inhibitors of STAT3 and uses thereof” (Board of Regents, The University of Texas System, priority 2009, dated 2014)
“Also recorded” adds a separate entry of the source.

Assays:
[1] = test system: SUM149 inflammatory breast tumor cells; assay: Anchorage-independent growth in soft agar, SUM149; assay type: cell-based; conditions: 28 days
Protocol: (§1) Assay for anchorage-independent growth in soft agar Cells (5×10^5) were suspended in 1× DMEM/HEPES, 10% heat-inactivated FBS, 0.13% bicarbonate, and 0.33% BBL agar. The cells were plated on 1% base agar plates (60 mm) containing 1× DMEM/HEPES, 10% heat-inactivated FBS, and 1% BBL agar. Fresh serum-containing medium was fed to the cells on 3-day intervals. The dishes were then incubated at 37° C. with 5% CO2 for 28 days. The colonies that grew in soft agar were photographed and counted. Data are expressed as the number of colonies formed per plate±S.E.M. and three plates were counted per cell line.

[2] = test system: MDA7, MDA-MB-231, SUM149, and SUM190; assay: Anchorage-independent growth in soft agar, four breast tumor models; assay type: cell-based; conditions: MDA7, MDA-MB-231, SUM149, SUM190; 28 days
Protocol: as §1

[3] = test system: SUM149 and MDA-MB-231 cells; assay: In vitro invasion of an artificial basement membrane; assay type: cell-based, human; conditions: 5 μM in DMSO; 72 hours
Protocol: Effect of prodrugs on in vitro invasion of an artificial basement membrane by human breast cancer cells. SUM149 and MDA-MB-231 cells were trypsinized, resuspended in serum-supplemented medium, and counted. Cells were then washed 3 times with serum-free medium. Plates (6-well) compatible with transwell inserts with 8 μm pore-size polycarbonate filters (Fisher Scientific) were coated with Matrigel in cold serum-free DMEM/F12 at a final concentration of 0.7 mg/mL and held at room temperature for 40 minutes. Cells (in 500 μL serum-free medium) were added into the transwell inserts and incubated for 72 hours in the absence or presence 5 μM prodrug in DMSO (1% by volume). For a control, 10% FBS was used to evaluate the baseline extent of invasion of the different cell lines. After incubation, noninvading cells on the upper surface of the filter were removed with cotton swabs. Cells that had passed through the pores onto the lower side of the filter were fixed, stained with Hema-3 stain (Fisher Scientific), and quantified. The experiments were performed in triplicate and were repeated twice.

STAT3 [4] = biological target: T1, STAT3 (Homo sapiens, UniProt P40763); assay: Inhibition of STAT3 phosphorylation in BT20 breast tumor cells (western blot); assay type: cell-based; parameters: endogenous in cells; host or cells: BT20 breast tumor cells; conditions: BT20 time course
Protocol: Inhibition of STAT3 in BT20 Breast Tumor Cells. General procedure: 35 mm petri dishes were plated with 300,000 BT20 cells in 2 mL RPMI1640 media containing 10% FBS, […], streptomycin, and glutamine. Prodrugs were dissolved in DMSO and were added to the cells with fresh media at varying concentrations. After 2 h the cells were washed with ice cold phosphate buffered saline. Washed cells were treated with lysis buffer (50 mM Hepes, pH 7.4, 150 mM NaCl, 1.5 mM MgCl2, 1 mM EGTA, 100 mM NaF, 10 mM sodium pyrophosphate, 10% glycerol, 1% Triton X-100, 1 mM PMSF, 1 mM Na3VO4, 10 μg/mL leupeptin and 10 μg/mL aprotinin). Cell-free detergent extracts were centrifuged at 15,000 rpm in a microcentriguge for 30 min at 4° C. and the protein concentrations of the supernatants determined. Aliquots containing 12 μg of protein were separated on 8% SDS-PAGE and were transferred to PVDF filters. The filters were blocked with 5% bovine serum albumin and were probed with pStat3^Y705 antibody followed by secondary antibody, whose signal was detected with an enhanced chemiluminescence kit (ECL, Amersham, Chicago, Ill.). Filters were stripped with stripping buffer (62.5 mM Tris, pH 6.8, 2% SDS, and 0.1 M 2-mercaptoethanol) at 50° C. for 30 min. Filters were then probed with total Stat3 antibody and visualized with chemiluminescence as above.
Because DMSO is toxic, other formulations were evaluated for potential use in animal models. The compound of Example 1 was dissolved in EtOH, 20% (w/v) Trappsol (hydroxypropyl β-cyclodextran, pharmaceutical grade), or a liposomal formulation to a concentration of 5 mM. These formulations were given to cells at 0.1, 0.5, and 5 μM concentrations. At two hours, cells were lysed and pSTAT3 levels were determined by Western Blot (FIG. 3). Different formulations have little effect on inhibition of STAT3. The compound of Example 1 was dissolved in DMSO, EtOH, Trappsol, or as a 10 mol % mixture in dimyristoylphosphatidyl choline and applied to BT20 cell in culture. After two hours, cells were lysed and pSTAT3 levels determined by Western blot. To prepare liposomes a solution of 1.0 mg of the compound of Example 1, 7.2 mg of DMPC, 0.41 mg of Tween 20 in 1.0 mL of tert-butanol was lyophilized. A control lipid formulation of 7.2 mg of DMPC and 0.41 mg of Tween 20 in 1.0 mL of tert-butanol was lyophilized. These samples were mixed with 236 μL of H2O and were vortexed and sonicated for 5 min.
The compounds are selective for STAT3 over STAT1 in BT20 breast tumor cells. BT20 cells prepared as above and were treated with 5 μM of the compound of Example 1 for two hours then were treated with 25 ng/mL of interferon γ (IFNγ). […] (FIG. 4, bottom panel).
Time course of inhibition of STAT3 phosphorylation in BT20 cells. BT20 cells were plated as above and treated with the compounds from Examples 1 and 6 and western blots were performed at varying time intervals.

STAT5 = assay: EGF-stimulated STAT5 phosphorylation in MDA-MB-468 cells; assay type: cell-based, human; conditions: 1.5 hr prodrug, then EGF 100 ng/mL 30 min
Protocol: (§2) Effect of prodrug on the phosphorylation of STAT3, STAT5 and Akt in response to Epidermal Growth Factor stimulation. MDA-MB-468 cells were prepared as above. Prodrugs were prepared as 10 mM stock solutions in DMSO and aliquots were added to the culture media to give the correct final concentrations. After 1.5 hr EGF was added at 100 ng/mL. After 30 minutes cells were collected and lysed and proteins were separated by PAGE and transferred to three PVDF filters as above. The first filter was blocked with 5% bovine serum albumin and probed for total and phosphoStat3 as above. The second filter was probed for phosphoSer473Akt and total Akt using appropriate antibodies and similar detection procedures to those used for STAT3. The third filter was probed for phosphoTyr699 Stat5 and total STAT5 using appropriate antibodies and similar detection procedures to those used for STAT3.

Akt = assay: EGF-stimulated Akt Ser473 phosphorylation in MDA-MB-468 cells; assay type: cell-based, human; conditions: 1.5 hr prodrug, then EGF 100 ng/mL 30 min
Protocol: as §2

[5] = test system: Focal Adhesion Kinase (FAK); assay: Phosphorylation of Focal Adhesion Kinase Tyr861 in MDA-MB-468 cells; assay type: cell-based, human; conditions: 2 hr treatment
Excerpt: Effect of Prodrug on the phosphorylation of Focal Adhesion Kinase (FAK) in MDA-MB-468 breast tumor cells. MDA-MB-468 cells express constitutive phosphorylation of Tyr861 of FAK (Laird, A. et al., Src Family Kinase Activity is Required For Signal Tranducer and Activator of Transcription 3 and Focal Adhesion Kinase Phosphorylation and Vascular Endothelial Growth Factor Signaling In Vivo and For Anchorage-Dependent and Independent Growth Of Human Tumor Cells, Mol Cancer Ther, 2, 461-9(2003). a unique substrate of Src upon recruitment via its SH2 domain (Calalb, M. B., et al, S. K. Focal adhesion kinase tyrosine-861 is a major site of phosphorylation by Src. Biochem Biophys Res Commun 1996, 228, 662-8 (1996.) To test for cross reactivity to the Src SH2 domain, MDA-MB-468 cell extracts were probed for phosphorylation of Tyr861 of FAK.

STAT3 [6] = biological target: T1, STAT3; assay: Inhibition of Stat3 tyrosine705 phosphorylation in MDA-MB-468 cells; assay type: cell-based; parameters: host or cells: MDA-MB-468 breast tumor cells; conditions: 2 h
Protocol: Inhibition of Stat3 tyrosine705 phosphorylation in MDA-MB-468 cells. MDA-MB-468 breast tumor cells (0.4×10^6) were plated onto 35 mm culture dishes and were allowed to grow overnight. Prodrugs were prepared as 10 mM stock solutions in DMSO and aliquots were added to the culture media to give the correct final concentrations. After 2 h the cells were washed with ice cold phosphate buffered saline. Washed cells were treated with lysis buffer (50 mM Hepes, pH 7.4, 150 mM NaCl, 1.5 mM MgCl2, 1 mM EGTA, 100 mM NaF, 10 mM sodium pyrophosphate, 10% glycerol, 1% Triton X-100, 1 mM PMSF, 1 mM Na3VO4, 10 μg/mL leupeptin and 10 μg/mL aprotinin). Cell-free detergent extracts were centrifuged at 15,000 rpm in a microcentriguge for 30 min at 4° C. and the protein concentrations of the supernatants determined. Aliquots containing 12 μg of protein were separated on 8% SDS-PAGE and were transferred to PVDF filters. The filters were blocked with 5% bovine serum albumin and were probed with pStat3^Y705 antibody followed by secondary antibody, whose signal was detected with an enhanced chemiluminescence kit (ECL, Amersham, Chicago, Ill.). Filters were stripped with stripping buffer (62.5 mM Tris, pH 6.8, 2% SDS, and 0.1 M 2-mercaptoethanol) at 50° C. for 30 min. Filters were then probed with total Stat3 antibody and visualized with chemiluminescence as above.

STAT3 [7] = biological target: T1, STAT3; assay: EGF-stimulated STAT3 phosphorylation in MDA-MB-468 cells; assay type: cell-based; parameters: host or cells: MDA-MB-468 breast tumor cells; conditions: 1.5 hr prodrug, then EGF 100 ng/mL 30 min
Protocol: as §2

STAT1 = biological target: T2, STAT1 (Homo sapiens, UniProt P42224); assay: IFNγ-stimulated STAT1 phosphorylation in MDA-MB-468 cells; assay type: cell-based; parameters: host or cells: MDA-MB-468 breast tumor cells
T2 sequence (P42224 1-750): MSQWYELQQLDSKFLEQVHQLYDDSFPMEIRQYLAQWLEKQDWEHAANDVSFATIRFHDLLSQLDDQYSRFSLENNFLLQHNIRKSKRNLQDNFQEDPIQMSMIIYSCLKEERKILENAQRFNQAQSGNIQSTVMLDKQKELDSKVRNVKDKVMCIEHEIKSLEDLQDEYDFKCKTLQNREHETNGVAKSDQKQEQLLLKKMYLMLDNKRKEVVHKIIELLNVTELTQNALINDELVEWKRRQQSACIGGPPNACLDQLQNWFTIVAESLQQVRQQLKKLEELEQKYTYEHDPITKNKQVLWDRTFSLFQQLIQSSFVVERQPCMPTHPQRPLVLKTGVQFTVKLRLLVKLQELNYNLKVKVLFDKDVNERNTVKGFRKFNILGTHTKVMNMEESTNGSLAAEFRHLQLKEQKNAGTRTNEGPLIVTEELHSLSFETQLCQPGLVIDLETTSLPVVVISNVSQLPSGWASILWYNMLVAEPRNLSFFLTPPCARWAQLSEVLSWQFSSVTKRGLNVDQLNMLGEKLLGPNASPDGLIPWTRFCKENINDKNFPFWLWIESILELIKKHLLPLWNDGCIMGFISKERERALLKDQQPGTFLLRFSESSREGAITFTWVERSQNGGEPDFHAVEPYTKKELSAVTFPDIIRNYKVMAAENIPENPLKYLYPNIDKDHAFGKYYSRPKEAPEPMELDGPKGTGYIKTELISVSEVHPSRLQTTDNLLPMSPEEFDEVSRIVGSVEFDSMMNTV
Protocol: Effect of Prodrug on the phosphorylation of STAT1 in MDA-MB-468 breast tumor cells. MDA-MB-468 cells were prepared as above. Prodrugs were prepared as 10 mM stock solutions in DMSO and aliquots were added to the culture media to give the correct final concentrations. After 1.5 hr interferonγ was added at 25 ng/mL. After 30 minutes cells were collected and lysed and proteins were separated by PAGE and transferred to PVDF filters as above. Filters were probed for phosphoTyr701 Stat 1 and total Stat1 using appropriate antibodies and similar detection procedures to those used for Stat3.

T1 sequence (P40763 whole entry): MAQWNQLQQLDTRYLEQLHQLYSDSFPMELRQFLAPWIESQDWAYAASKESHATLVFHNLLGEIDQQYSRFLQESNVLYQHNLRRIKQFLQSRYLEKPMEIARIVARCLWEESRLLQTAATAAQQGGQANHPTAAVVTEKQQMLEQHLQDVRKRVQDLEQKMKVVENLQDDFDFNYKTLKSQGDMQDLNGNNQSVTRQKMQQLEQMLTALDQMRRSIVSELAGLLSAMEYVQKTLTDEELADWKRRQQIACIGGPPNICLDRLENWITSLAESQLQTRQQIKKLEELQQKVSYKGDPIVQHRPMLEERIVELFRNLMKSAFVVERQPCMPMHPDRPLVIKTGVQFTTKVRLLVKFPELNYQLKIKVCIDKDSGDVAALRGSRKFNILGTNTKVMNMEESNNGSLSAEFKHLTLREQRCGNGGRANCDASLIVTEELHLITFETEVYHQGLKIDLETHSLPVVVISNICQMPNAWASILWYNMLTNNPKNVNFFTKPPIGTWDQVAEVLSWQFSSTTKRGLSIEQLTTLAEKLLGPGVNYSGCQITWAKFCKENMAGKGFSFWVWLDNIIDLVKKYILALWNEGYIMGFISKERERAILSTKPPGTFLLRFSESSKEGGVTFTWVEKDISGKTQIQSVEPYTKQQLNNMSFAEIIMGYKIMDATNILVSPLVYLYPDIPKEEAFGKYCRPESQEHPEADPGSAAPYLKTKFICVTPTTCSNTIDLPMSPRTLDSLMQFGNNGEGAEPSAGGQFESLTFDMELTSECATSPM

For `C/C(=C\C(=O)N[C@H]1CCc2cccc3c2N(C1=O)[C@H](C(=O)N[C@H](C)CCC(N)=O)C3)c1ccc(C(F)(F)P(=O)(Oc2ccccc2)Oc2ccccc2)cc1` [Example 8, (E)-3-[4-[(Diphenoxyphosphinyl)difluoromethyl]phenyl]-but-2-enoyl-Haic-(R)-4-aminopentamide], the “colony formation in soft agar” value [1] was “inhibition of colony formation”, the “colony formation in soft agar, four breast tumor models” value [2] was “inhibition” and the “invasion through the artificial basement membrane” value [3] was “inhibited invasion”. For the same compound, the “effectiveness of phosphate (X=O) relative to difluoromethyl phosphonate Example 1 (X=CF2)” value (STAT3 [4]) was “as effective as”.
In the case of `CCCC[C@H](NC(=O)/C=C(\C)c1ccc(C(F)(F)P(=O)(OCOC(=O)C(C)(C)C)OCOC(=O)C(C)(C)C)cc1)C(=O)N1C[C@H]2CC2[C@H]1C(=O)N[C@H](C)CCC(N)=O` (stereo partly drawn) [Example 18, (2E)-3-[4-[[bis[(2,2-dimethyl-1-oxopropoxy)methoxy]phosphinyl]difluoromethyl]phenyl]-but-2-enoyl-norleucinyl-(2S,3R,4S)-methanoprolinyl-(R)-4-aminopentamide], the “Stat5 phosphorylation after EGF” value (STAT5) is reported as “no effect”, the “Akt Ser473 phosphorylation after EGF” value (Akt) is reported as “no effect” and the “phosphorylation of FAK Tyr861” value [5] is reported as “no reduction; also recorded: do not inhibit”. For the same compound, the “concentration as low as which partial inhibition of STAT3 phosphorylation was seen” value (STAT3 [6]) was 10 nM, the “concentration at which complete inhibition of STAT3 phosphorylation occurred” value (STAT3 [6]) was 500 nM and the “inhibition of Tyr705 phosphorylation of Stat3 (potency in words)” value (STAT3 [6]; prodrug in DMSO) was “very potent inhibitors; also recorded: inhibit phosphorylation of STAT3”. For the same compound, the “EGF-induced increase in Stat3 phosphorylation” value (STAT3 [7]) was “effective at inhibiting”, the “inhibition of Stat1 phosphorylation compared with Stat3 phosphorylation” value (STAT1; 1.5 hr prodrug, then interferonγ 25 ng/mL 30 min) was “less effective” and the “fold less potent at inhibiting STAT1 than STAT3” value (STAT1; MDA-MB-468 cells) was “about 10 fold”.
